Test results published in patent US9550782B2, “Compounds and methods for treating diabetes” (Medivation Technologies, Inc., priority 2011, dated 2017).
Several values for one entry are separate records, joined by “and”; a condition that tells them apart may be missing. Equal values may be shown once.

Experiments:
[1] = biological target: T1, human recombinant adrenergic α2B receptor (Homo sapiens, UniProt P18089); assay: Radioligand binding, adrenergic α2B ([3H]Rauwolscine); conditions: for Percentage inhibition of ligand binding, Adrenergic α2B (0.03 μM): repeat datapoints each shown; for inhibition at 0.03 µM: read-out: Percentage inhibition of ligand binding, Adrenergic α2B (0.03 μM), compound at 0.03 μM, repeat datapoints each shown
T1 construct: expressed in transfected cells; host or cells: CHO-K1
T1 sequence (P18089 1-450): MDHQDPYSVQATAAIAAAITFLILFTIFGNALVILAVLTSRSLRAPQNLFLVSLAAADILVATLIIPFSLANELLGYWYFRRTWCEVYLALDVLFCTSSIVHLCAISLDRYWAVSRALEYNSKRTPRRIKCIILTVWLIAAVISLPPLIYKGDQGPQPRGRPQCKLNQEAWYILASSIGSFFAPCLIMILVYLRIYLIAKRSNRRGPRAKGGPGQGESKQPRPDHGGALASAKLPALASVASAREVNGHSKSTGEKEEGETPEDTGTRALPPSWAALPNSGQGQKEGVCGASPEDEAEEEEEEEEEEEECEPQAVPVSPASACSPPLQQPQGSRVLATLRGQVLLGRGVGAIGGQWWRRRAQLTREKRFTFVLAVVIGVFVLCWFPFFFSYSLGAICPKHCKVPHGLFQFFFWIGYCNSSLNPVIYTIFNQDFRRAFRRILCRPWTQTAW
Experimental: To evaluate in radioligand binding assays the activity of compounds of the invention, human recombinant adrenergic α2B receptor expressed in Chinese hamster ovary (CHO) K1 cells (Uhlen, S. et al, Eur. J. Pharmacol. 343(1):93, 1998) in a modified Tris-HCl buffer (50 mM Tris-HCl, pH 7.4, 12.5 mM MgCl2, 1 mM EDTA, 0.2% BSA) was used. Compounds of the invention were incubated with 2.5 nM [3H]Rauwolscine for 60 min at 25° C. Non-specific binding was estimated in the presence of 10 μM Prazosin. Receptor proteins were filtered and washed, the filters were then counted to determine [3H]Rauwolscine specifically bound. […] Compounds of the invention were tested in this biochemical assay and percent inhibition of specific binding was determined. Biochemical assay results are presented as the percent inhibition of specific binding in Table B1.

[2] = biological target: T2, human recombinant adrenergic α2A receptor (Homo sapiens, UniProt P08913); assay: Radioligand binding, adrenergic α2A ([3H]MK-912); conditions: for inhibition at 0.1 µM: read-out: Percentage inhibition of ligand binding, Adrenergic α2A (0.1 μM), compound at 0.1 μM
T2 construct: expressed in transfected cells; host or cells: insect Sf9 cells
T2 sequence (P08913 1-465): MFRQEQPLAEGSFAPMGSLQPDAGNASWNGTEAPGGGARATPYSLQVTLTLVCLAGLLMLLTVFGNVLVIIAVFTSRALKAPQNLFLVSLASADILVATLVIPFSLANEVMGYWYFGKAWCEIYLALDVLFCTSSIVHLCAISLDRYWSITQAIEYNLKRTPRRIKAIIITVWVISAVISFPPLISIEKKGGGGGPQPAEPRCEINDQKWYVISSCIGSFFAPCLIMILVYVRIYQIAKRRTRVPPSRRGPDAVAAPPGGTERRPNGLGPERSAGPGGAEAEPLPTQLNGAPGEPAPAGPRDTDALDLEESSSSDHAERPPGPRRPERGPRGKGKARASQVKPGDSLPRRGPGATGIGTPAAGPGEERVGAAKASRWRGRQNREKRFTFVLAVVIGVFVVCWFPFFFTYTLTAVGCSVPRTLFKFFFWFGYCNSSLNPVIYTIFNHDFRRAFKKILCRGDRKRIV
Experimental: To evaluate in radioligand binding assays the activity of compounds of the invention, human recombinant adrenergic α2A receptor expressed in insect Sf9 cells (Uhlen, S. et al, J. Pharmacol. Exp. Ther. 271:1558, 1994) in a modified Tris-HCl buffer (50 mM Tris-HCl, pH 7.4, 12.5 mM MgCl2, 2 mM EDTA) was used. Compounds of invention were incubated with 1 nM [^3H]MK-912 for 60 min at 25° C. MK912 is (2S-trans)-1,3,4,5′,6,6′,7,12b-octahydro-1′,3′-dimethyl-spiro[2H-benzofuro[2,3-a]quinolizine-2,4′(1′H)-pyrimidin]-2′(3′H)-one hydrochloride. Non-specific binding was estimated in the presence of 10 μM WB-4101 (2-(2,6-Dimethoxyphenoxyethyl)aminomethyl-1,4-benzodioxane hydrochloride). Receptor proteins were filtered and washed, the filters were then counted to determine [^3H]MK-912 specifically bound. […] Compounds of the invention were tested in this biochemical assay and percent inhibition of specific binding was determined. Biochemical assay results are presented as the percent inhibition of specific binding in Table B1.

[3] = biological target: T3, rat adrenergic α1B receptor (Rattus norvegicus, UniProt P15823); assay: Radioligand binding, adrenergic α1B ([3H]Prazosin); set-up: species or system Wistar Rat; conditions: for Percentage inhibition of ligand binding, Adrenergic α1B (0.1 μM): compound at 0.1 μM, repeat datapoints each shown
T3 construct: rat adrenergic α1B receptor obtained from Wistar Rat liver; from tissue; host or cells: Wistar rat liver
T3 sequence (P15823 1-515): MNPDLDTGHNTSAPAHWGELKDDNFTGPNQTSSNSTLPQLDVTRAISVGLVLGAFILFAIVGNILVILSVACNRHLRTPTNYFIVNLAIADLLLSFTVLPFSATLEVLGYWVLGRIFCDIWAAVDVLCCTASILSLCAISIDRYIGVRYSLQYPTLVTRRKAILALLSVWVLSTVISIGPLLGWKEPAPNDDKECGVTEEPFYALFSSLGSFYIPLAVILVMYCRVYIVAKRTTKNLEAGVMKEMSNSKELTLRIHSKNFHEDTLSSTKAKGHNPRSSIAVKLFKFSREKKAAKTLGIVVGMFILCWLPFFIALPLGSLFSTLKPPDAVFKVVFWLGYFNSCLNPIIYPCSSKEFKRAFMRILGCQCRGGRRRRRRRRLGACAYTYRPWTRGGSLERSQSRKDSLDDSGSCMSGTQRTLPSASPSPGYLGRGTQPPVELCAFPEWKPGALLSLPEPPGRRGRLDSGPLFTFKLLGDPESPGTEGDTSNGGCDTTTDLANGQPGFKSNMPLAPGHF
Experimental: To evaluate in radioligand binding assays the activity of compounds of the invention, rat adrenergic α1B receptor obtained from Wistar Rat liver (Garcia-S'ainz, J. et al, Biochem. Biophys. Res. Commun. 186:760, 1992; Michel, A. et al, Br. J. Pharmacol. 98:883, 1989) in a modified Tris-HCl buffer (50 mM Tris-HCl buffer, pH 7.4, 0.5 mM EDTA) was used. Compounds of the invention were incubated with 0.25 nM [^3H]Prazosin for 60 min at 25° C. Non-specific binding was estimated in the presence of 10 μM phentolamine. Receptor proteins were filtered and washed, the filters were then counted to determine [^3H]Prazosin specifically bound. […] Compounds of the invention were tested in this biochemical assay and percent inhibition of specific binding was determined. Biochemical assay results are presented as the percent inhibition of specific binding in Table B1.

[4] = [3H]MK-912, repeat datapoints each shown
[5] = 0.1 μM compound, [3H]MK-912, 0.1 µM
[6] = compound at 0.1 μM, [3H]MK-912, 0.1 µM

2-(4-fluoro-phenyl)-1-(9-methyl-1,2,3,4,5,10c-hexahydro-3a,6-diaza-cyclopenta[c]fluoren-6-yl)-propan-2-ol [II-121b]
Ki ([1]; CHO-K1, repeat assays each datapoint shown): 0.22 nM | Percentage inhibition of ligand binding, Adrenergic α2B (0.03 μM) ([1]; compound at 0.03 μM, 0.03 µM): 100% and 103% | Ki ([2]; [3H]MK-912, Sf9, repeat assays each datapoint shown): 9.18 nM | Percentage inhibition of ligand binding, Adrenergic α2A (0.03 μM) ([2]; compound at 0.03 μM, [3H]MK-912, repeat datapoints each shown): 54% | Percentage inhibition of ligand binding, Adrenergic α2A (0.1 μM) ([2]; compound at 0.1 μM, [3H]MK-912, repeat datapoints each shown, 0.1 µM): 80% and 85%

Cc1ccc2c(c1)c1c(n2CC(N=[N+]=[N-])c2ccncc2)CCN(C)C1 (racemic) [V-1a, 5-(2-azido-2-(pyridin-4-yl)ethyl)-2,3,4,5-tetrahydro-2,8-dimethyl-1H-pyrido[4,3-b]indole]
inhibition at 0.03 µM [1]: 88% | inhibition at 0.1 µM [2, 4]: 36%

Cc1ccc2c(c1)c1c(n2CC(OC(=O)C(N)C(C)C)c2ccncc2)CCN(C)C1 (single isomer, unassigned) [25a]
Percentage inhibition of ligand binding, Adrenergic α2B (0.03 μM) ([1]; compound at 0.03 μM, 0.03 µM): 54% | Percentage inhibition of ligand binding, Adrenergic α1B (0.1 μM) ([3]; 0.1 µM): 4%

Cc1ccc2c(c1)c1c(n2CC(OC(=O)C(N)C(C)C)c2ccncc2)CCN(C)C1 (single isomer, unassigned) [25b]
Percentage inhibition of ligand binding, Adrenergic α2B (0.03 μM) ([1]; compound at 0.03 μM, 0.03 µM): 75% | Percentage inhibition of ligand binding, Adrenergic α1B (0.1 μM) ([3]; 0.1 µM): 12%

Cc1ccc2c(c1)c1c(n2C(C)C(O)c2ccncc2)CCN(C)C1 (single isomer, unassigned) [127a]
Percentage inhibition of ligand binding, Adrenergic α2B ([1]; 0.03 μM compound): 43% | Percentage inhibition of ligand binding, Adrenergic α2B ([1]; 0.1 μM compound): 74%

Cc1ccc2c(c1)c1c(n2CC(OC(=O)C(C)(C)C)c2ccncc2)CCN(C)C1 (single isomer, unassigned) [130a]
Percentage inhibition of ligand binding, Adrenergic α2B ([1]; 0.03 μM compound, 0.03 µM): 100% and 104% | Percentage inhibition of ligand binding, Adrenergic α2B ([1]; 0.1 μM compound): 107% | Percentage inhibition of ligand binding, Adrenergic α1B ([3]; 0.03 μM compound, 0.03 µM): 32% | Percentage inhibition of ligand binding, Adrenergic α1B ([3]; 0.1 μM compound, 0.1 µM): 66% and 68%

Cc1cnc2c(c1)c1c(n2CC(O)c2ccc(F)cc2)CCN(C)C1 (single isomer, unassigned) [136b]
Percentage inhibition of ligand binding, Adrenergic α2B ([1]; 0.03 μM compound, 0.03 µM): 69% | Percentage inhibition of ligand binding, Adrenergic α2A [2, 5]: 21%

Cc1cnc2c(c1)c1c(n2CC(C)(O)c2ccc(C)nc2)CCN2CCCC12 (single isomer, unassigned) [148d]
Percentage inhibition of ligand binding, Adrenergic α2B ([1]; 0.03 μM compound, 0.03 µM): 11% | Percentage inhibition of ligand binding, Adrenergic α2A [2, 5]: −11%

C/C(=C\n1c2c(c3cc(C)ccc31)C1CCCCN1CC2)c1ccc(F)cc1 (single isomer, unassigned) [199a]
Percentage inhibition of ligand binding, Adrenergic α2B ([1]; 0.03 μM compound, 0.03 µM): 94% | Percentage inhibition of ligand binding, Adrenergic α2A [2, 5]: 96%

C/C(=C\n1c2c(c3cc(C)ccc31)C1CCCCN1CC2)c1ccc(F)cc1 (single isomer, unassigned) [199b]
Percentage inhibition of ligand binding, Adrenergic α2B ([1]; 0.03 μM compound, 0.03 µM): 27% | Percentage inhibition of ligand binding, Adrenergic α2A [2, 5]: 61%

Cc1ccc2c(c1)c1c(n2CC(N)c2ccncc2)CCN2CCCC12 (single isomer, unassigned) [II-4a, 2-(9-methyl-1,2,3,4,5,10c-hexahydro-3a,6-diaza-cyclopenta[c]fluoren-6-yl)-1-pyridin-4-yl-ethylamine]
Percentage inhibition of ligand binding, Adrenergic α2B ([1]; compound at 0.03 μM, 0.03 µM): 79%

Cc1ccc2c(c1)c1c(n2CC(N)c2ccncc2)CCN2CCCC12 (single isomer, unassigned) [II-4b, 2-(9-methyl-1,2,3,4,5,10c-hexahydro-3a,6-diaza-cyclopenta[c]fluoren-6-yl)-1-pyridin-4-yl-ethylamine]
Percentage inhibition of ligand binding, Adrenergic α2B ([1]; compound at 0.03 μM, 0.03 µM): 100%

OCCN1CCc2c(c3cc(Cl)ccc3n2CC(O)c2cccnc2)C1 (single isomer, unassigned) [II-94a]
Percentage inhibition of ligand binding, Adrenergic α2B ([1]; compound at 0.03 μM, 0.03 µM): 8% | Percentage inhibition of ligand binding, Adrenergic α2A [2, 6]: 0%

Cc1cnc2c(c1)c1c(n2CC(O)c2ccc(C)nc2)CCN(C)C1 (single isomer, unassigned) [II-100a]
Percentage inhibition of ligand binding, Adrenergic α2B ([1]; compound at 0.03 μM, 0.03 µM): 12% | Percentage inhibition of ligand binding, Adrenergic α2A [2, 6]: 7%

Cc1cnc2c(c1)c1c(n2CCc2ccc(C)nc2)CCN2CCCCC12 (single isomer, unassigned) [IV-8a]
Percentage inhibition of ligand binding, Adrenergic α2B (0.03 μM) ([1]; compound at 0.03 μM, 0.03 µM): 4%

Cc1ccc2c(c1)c1c(n2C(C)C(O)c2ccncc2)CCN(C)C1 (stereo not drawn) [II-98b]
Percentage inhibition of ligand binding, Adrenergic α2B ([1]; compound at 0.03 μM): 5%

CN1CCc2c(c3cc(Cl)ccc3n2CC(O)c2ccncc2)C1 (stereo not drawn) [compound 4]
inhibition at 0.03 µM [1]: 106%

Cc1ccc2c(c1)c1c(n2CC(O)c2ccncc2)CN(C)CC1 (stereo not drawn) [compound 8]
inhibition at 0.03 µM [1]: 61%

Cc1ccc2c(c1)c1c(n2CC(O)c2ccncc2)C(C)N2CCC1C2 (stereo not drawn) [compound 38]
inhibition at 0.03 µM [1]: 56% | inhibition at 0.1 µM [2, 4]: -1%

CN1CCc2c(n(CC(O)c3ccncc3)c3ccc(Cl)cc23)C1 (stereo not drawn) [compound 41]
inhibition at 0.03 µM [1]: 45% | inhibition at 0.1 µM [2, 4]: 24%
